The record followed here is patent publication US9884854B2, “N-[(pyrimidinylamino)propanyl]-and N[(pyrazinylamino)proppanyl]arylcarboxamides” (Boehringer Ingelheim International GmbH, priority 2016, dated 2018).

The target in the assay is T1, human orexin 2 receptor (Homo sapiens, UniProt O43614).
T1 construct: stably expressing the full-length human orexin 2 receptor and the aequorin photoprotein; expressed in transfected cells; host or cells: CHO-K1 (CHO-K1/hOx2), co-expressing aequorin
T1 sequence (O43614 1-444): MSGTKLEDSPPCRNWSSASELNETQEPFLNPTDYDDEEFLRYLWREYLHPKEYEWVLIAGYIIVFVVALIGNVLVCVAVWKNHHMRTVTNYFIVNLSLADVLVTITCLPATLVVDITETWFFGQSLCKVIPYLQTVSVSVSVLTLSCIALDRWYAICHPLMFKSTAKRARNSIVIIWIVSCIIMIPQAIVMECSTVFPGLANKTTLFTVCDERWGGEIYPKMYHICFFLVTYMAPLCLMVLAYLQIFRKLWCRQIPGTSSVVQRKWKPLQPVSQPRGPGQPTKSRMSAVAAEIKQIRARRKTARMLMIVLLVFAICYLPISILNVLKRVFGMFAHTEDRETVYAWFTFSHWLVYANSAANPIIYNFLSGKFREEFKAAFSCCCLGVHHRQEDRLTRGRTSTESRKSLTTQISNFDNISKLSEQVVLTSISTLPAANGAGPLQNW
The assay is described as follows: Assay B: OX2R IP1 (in vitro OX2R potency). It is filed as cell-based. The conditions noted are these: 0.5 nM Orexin A concentration. From the text: Activation of the orexin receptors expressed in cell lines results in an increase in intracellular IP3 concentration. IP1, a downstream metabolite of IP3, accumulates in cells following receptor activation and is stable in the presence of LiCl. Using Homogeneous Time-Resolved Fluorescence technology with Lumi4-Tb cryptate (commercially available from Cisbio Bioassay.) and a suitable fluorescence plate reader. […] Chem. Genomics 2009, 3, 22-32. This technique is used to characterize pharmacological modification of the orexin receptors.
B. In Vitro Testing of OX2R Potency: OX2R IP1
IP1 measurements are performed in CHO-K1 cells stably expressing the full-length human orexin 2 receptor and the aequorin photoprotein. Cells are cultivated in Ham's nutrient mixture F12 medium with 10% fetal calf serum, in a 37° C., 95% humidity and 5% CO2 incubator. The CHO-K1/hOx2 cell mass is expanded to larger cell numbers. The cells are obtained as frozen cells in cryo-vials and stored until use at −150° C. The viability of the cells after thawing is >90%. In preparation for the assay, 24 hours before the assay, the cells are thawed at 37° C. and immediately diluted with cell culture medium. After centrifugation, the cell pellet is resuspended in medium and then distributed into the assay plates with a density of 5000 cells/25 μL per well. The plates are incubated for one hour at room temperature to reduce edge effects before they are incubated for 24 hours at 37° C./5% CO2. Compounds are prepared by a 8-point serial dilution in DMSO and a final dilution step into assay buffer (HBSS with 20 mM HEPES, 0.1% BSA and 50 mM LiCl, pH 7.4) to ensure a final DMSO concentration of 1% in the assay. On the day of the assay, cells in the plate are washed twice with 60 μL assay buffer (20 μL buffer remained in the wells after washing), followed by adding 5 μL per well of compounds diluted in assay buffer. After 15 minutes of incubation at room temperature 5 μL per well of Orexin A peptide (final concentration: 0.5 nM) dissolved in assay buffer is added to the assay plate. The assay plate is incubated for 60 minutes at 37° C. Then 5 μl per well of Anti-IP1-Cryptate Tb solution and 5 μl per well of IP1-d2 dilution are added to all well of the plate and the plate is incubated for a further 60 minutes light protected at room temperature. The emission at 615 nm and 665 nm (Excitation wavelength: 320 nm) are measured using an EnVision reader (PerkinElmer). The ratio between the emission at 665 nm and 615 is calculated by the reader.
8-point four parametric non-linear curve fitting and determination of IC50 values and Hill slopes is performed using a regular analysis software e.g. AssayExplorer (Accelrys). In order to establish an agonist concentration independent parameter, Kb values are calculated using the following equation: IC50/((2+(A/EC50)n)^1/n−1) (with A=concentration agonist, EC50=EC50 agonist, n=Hill slope agonist) (see P. Leff, I. G. Dougall, Trends Pharmacol. Sci. 1993, 14(4), 110-112).
Kb values from Assay A (OX1R) and Assay B (OX2R) can then provide a selectivity ratio which is independent of the agonist (Orexin A) concentration.
Molecule `CCN(C(=O)c1ccccc1-n1nccn1)[C@@H](C)CNc1ncc(C(F)(F)F)cn1` [Example 1] showed a Kb of 19.4 nM.

Consider `CCN(C(=O)c1nc(C)ccc1-n1nccn1)[C@@H](C)CNc1ncc(C(F)(F)F)cn1` [Example 9], for which the Kb came out at 32.9 nM. To `CCN(C(=O)c1cnc(C)nc1-c1ccccc1)[C@@H](C)CNc1ncc(C(F)(F)F)cn1` [Example 17] belongs 54 nM.

The molecule `CCN(C(=O)c1cccc(F)c1-n1nccn1)[C@@H](C)CNc1ncc(C(F)(F)F)cn1` [Example 18] yielded a Kb of 18 nM.
